Entries after “also recorded” stand apart in the source; their conditions may differ.
Columns and labels:
drusen = experiment: in vitro drusen removal assay, frozen drusen sections treated with cyclodextrin, H&E staining; set-up: species or system human
Experimental: (§1) Unfixed, donor eye with AMD drusen was immersed in 30% sucrose in PBS buffer at pH 7.4 for 24 hours at 4° C. for cryoprotection, then embedded in OCT. For cryostat sections, the eye was serially sectioned at 8 μm thickness and stored at −70° C. Drusen were identified under the microscope. Unfixed fresh frozen mouse brown fat tissue was sectioned at 10 μm thickness as the positive control.
(§2) A viable in vitro assay to evaluate compounds with a potential to remove drusen in the eye was explored. Sections with drusen were treated with cyclodextrin for 30 min, 1 hr, 2 hrs, 4 hrs, 15 hrs at room temperature. In a subsequent experiment, sections with drusen were immersed in 40 ml of 25% Hydroxypropyl β-cyclodextrin at 37° C. for 24 hrs.
(§3) Unfixed frozen human eye drusens were considered closest to the in vivo state of drusen. Mouse brown fat was used for positive control.

[1] = tested on: lipid component of drusen; experiment: lipid histochemistry of drusen in eyes with AMD, Oil Red O staining; set-up: species or system human; settings: 40 ml of 25% solution, 37° C., 24 hrs
Experimental: as §1, §2, §3

mouse brown fat tissue = experiment: lipid histochemistry of fresh fat tissue, Oil Red O staining (positive control tissue); settings: for dissolving of mouse fat tissue: 37° C., 24 hrs, compared with untreated fat tissue
Experimental: as §1
Hydroxypropyl β-cyclodextrin selected compound was titered to the best concentration by mouse fat tissue at 37° C. for 24 hrs (Table.2).
as §3

Hydroxypropyl β-cyclodextrin
size of a drusen, H&E 40× (FIG. 1C) (drusen; 25% solution, 2 hours): reduced size | change / dissolving of drusen by H&E staining (drusen; 40 ml, 25% (different concentration), 37° C., 24 hrs): no change; also recorded: could not completely dissolve drusen | ORO staining of lipid-containing drusen / dissolving the lipid component of drusen [1]: stained negatively; also recorded: has efficacy in dissolving the lipid component of drusen | dissolving of fresh mouse fat tissue (mouse brown fat tissue; 25% solution): has efficacy in dissolving fresh mouse fat tissue | dissolving of mouse fat tissue (mouse brown fat tissue; 25%-45% solution): has effect on dissolving the partial fat tissue; also recorded: partial fat tissues were dissolved

Sulfonyletherbutyl β-cyclodextrin
dissolving of mouse fat tissue (mouse brown fat tissue; 30% solution): partial fat tissues were dissolved

— patent US8158609B1, “Use of cyclodextrins as an active ingredient for treating dry AMD and solubilizing drusen” (Novartis AG, priority 2006, dated 2012)
